Source: PubChem BioAssay AID2060487 (Molecular Pharmacology Branch, DTP, NCI, 2025)
pIC50: −log10 of the molar value.

System: 997537-175-T-J1-PDC complex spheroid viability
Experiment: Anticancer human tumor 997537-175-T-J1-PDC patient-derived colon adenocarcinoma cell line growth inhibition [GQUAD]
Conditions: for pIC50: curve of first compound; for viability, T/C: stronger effect = lower value; active = viability on the fitted dose curve at most 10% of control; inactive = the rest
Procedure, shortened: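 Viability of tumor cells grown as complex spheroids with endothelial and stromal cells, exposed to drug combinations. Top concentration at or near clinical Cmax (else 10 microM), diluted in half-log increments.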

[1] = second compound 0.0316 µM, first compound 0.0316 µM
[2] = second compound 0.0316 µM, first compound 0.1 µM
[3] = second compound 0.0316 µM, first compound 0.316 µM
[4] = second compound 0.0316 µM, first compound 1 µM
[5] = second compound 0.0316 µM, first compound 3.16 µM
[6] = second compound 0.0316 µM, first compound 10 µM
[7] = second compound 0.1 µM, first compound 0.0316 µM
[8] = second compound 0.1 µM, first compound 0.1 µM
[9] = second compound 0.1 µM, first compound 0.316 µM
[10] = second compound 0.1 µM, first compound 1 µM
[11] = second compound 0.1 µM, first compound 3.16 µM
[12] = second compound 0.1 µM, first compound 10 µM
[13] = second compound 0.316 µM, first compound 0.0316 µM
[14] = second compound 0.316 µM, first compound 0.1 µM
[15] = second compound 0.316 µM, first compound 0.316 µM
[16] = second compound 0.316 µM, first compound 1 µM
[17] = second compound 0.316 µM, first compound 3.16 µM
[18] = second compound 0.316 µM, first compound 10 µM
[19] = second compound 1 µM, first compound 0.0316 µM
[20] = second compound 1 µM, first compound 0.1 µM
[21] = second compound 1 µM, first compound 0.316 µM
[22] = second compound 1 µM, first compound 1 µM
[23] = second compound 1 µM, first compound 3.16 µM
[24] = second compound 1 µM, first compound 10 µM
[25] = second compound 3.16 µM, first compound 0.0316 µM
[26] = second compound 3.16 µM, first compound 0.1 µM
[27] = second compound 3.16 µM, first compound 0.316 µM
[28] = second compound 3.16 µM, first compound 1 µM
[29] = second compound 3.16 µM, first compound 3.16 µM
[30] = second compound 3.16 µM, first compound 10 µM
[31] = second compound 10 µM, first compound 0.0316 µM
[32] = second compound 10 µM, first compound 0.1 µM
[33] = second compound 10 µM, first compound 0.316 µM
[34] = second compound 10 µM, first compound 1 µM
[35] = second compound 10 µM, first compound 3.16 µM
[36] = second compound 10 µM, first compound 10 µM
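Also: spheroids exposed to the agents for 7 days.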
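For viability, T/C in this document: 100% = DMSO vehicle control viability.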

CC(=O)O[C@H]1C(=O)[C@@]2(C)[C@H]([C@H](OC(=O)c3ccccc3)[C@]3(O)C[C@H](OC(=O)[C@H](O)[C@@H](NC(=O)c4ccccc4)c4ccccc4)C(C)=C1C3(C)C)[C@]1(OC(C)=O)CO[C@@H]1C[C@@H]2O + Cc1[nH]c2ccc(F)cc2c1-c1nc2c3cccnc3c3ncccc3c2[nH]1
5.44: pIC50 (second compound 1 µM)
5.35: pIC50 (second compound 0.316 µM)
inactive: viability, T/C [1] 97.5% | viability, T/C [2] 93.3% | viability, T/C [3] 80.5% | viability, T/C [4] 92.1% | viability, T/C [5] 45.2% | viability, T/C [7] 102% | viability, T/C [8] 106% | viability, T/C [9] 86.6% | viability, T/C [10] 90.9% | viability, T/C [11] 65.6% | viability, T/C [13] 113% | viability, T/C [14] 91% | viability, T/C [15] 85.7% | viability, T/C [16] 87.7% | viability, T/C [17] 75.5% | viability, T/C [19] 94.1% | viability, T/C [20] 93.3% | viability, T/C [21] 96.2% | viability, T/C [22] 89.8% | viability, T/C [23] 56.8% | viability, T/C [25] 83.7% | viability, T/C [26] 93.3% | viability, T/C [27] 96.7% | viability, T/C [28] 84.8% | viability, T/C [29] 33.4% | viability, T/C [31] 78.5% | viability, T/C [32] 90.1% | viability, T/C [33] 77.2% | viability, T/C [34] 78% | viability, T/C [35] 30.7%
5.71: pIC50 (second compound 10 µM)
active: viability, T/C [6] 0.33% | viability, T/C [12] 0.32% | viability, T/C [18] 0.3% | viability, T/C [24] 0.2% | viability, T/C [30] 0.38% | viability, T/C [36] 0.47%
5.55: pIC50 (second compound 0.0316 µM)
5.66: pIC50 (second compound 3.16 µM)
5.39: pIC50 (second compound 0.1 µM)

O=C(c1cc(Cc2n[nH]c(=O)c3ccccc23)ccc1F)N1CCN(C(=O)C2CC2)CC1 + Cc1[nH]c2ccc(F)cc2c1-c1nc2c3cccnc3c3ncccc3c2[nH]1
< 5.00: pIC50 (second compound 0.0316 µM) | pIC50 (second compound 0.1 µM) | pIC50 (second compound 0.316 µM) | pIC50 (second compound 1 µM) | pIC50 (second compound 3.16 µM) | pIC50 (second compound 10 µM)
inactive: viability, T/C [1] 99.8% | viability, T/C [2] 96.1% | viability, T/C [3] 93.2% | viability, T/C [4] 81.6% | viability, T/C [5] 79% | viability, T/C [6] 102% | viability, T/C [7] 91.8% | viability, T/C [8] 95.7% | viability, T/C [9] 77.1% | viability, T/C [10] 67.8% | viability, T/C [11] 89.5% | viability, T/C [12] 94.1% | viability, T/C [13] 76.1% | viability, T/C [14] 103% | viability, T/C [15] 90% | viability, T/C [16] 88.5% | viability, T/C [17] 98.4% | viability, T/C [18] 94.6% | viability, T/C [19] 76.9% | viability, T/C [20] 96.7% | viability, T/C [21] 73.6% | viability, T/C [22] 101% | viability, T/C [23] 106% | viability, T/C [24] 109% | viability, T/C [25] 90.7% | viability, T/C [26] 89.9% | viability, T/C [27] 100% | viability, T/C [28] 81.4% | viability, T/C [29] 94.4% | viability, T/C [30] 94.4% | viability, T/C [31] 71.9% | viability, T/C [32] 84.1% | viability, T/C [33] 96.7% | viability, T/C [34] 60.5% | viability, T/C [35] 79.8% | viability, T/C [36] 83.6%

CCCS(=O)(=O)Nc1ccc(F)c(C(=O)c2c[nH]c3ncc(-c4ccc(Cl)cc4)cc23)c1F + CN(C)c1ccc(Nc2c3ccc(NC(=O)CCN4CCCC4)cc3nc3cc(NC(=O)CCN4CCCC4)ccc23)cc1
5.15: pIC50 (second compound 3.16 µM)
5.66: pIC50 (second compound 0.0316 µM)
5.23: pIC50 (second compound 10 µM)
5.39: pIC50 (second compound 0.316 µM)
5.33: pIC50 (second compound 1 µM)
inactive: viability, T/C [1] 93.9% | viability, T/C [2] 75.3% | viability, T/C [3] 60.8% | viability, T/C [4] 78.6% | viability, T/C [5] 38.4% | viability, T/C [6] 24.5% | viability, T/C [7] 105% | viability, T/C [8] 73.1% | viability, T/C [9] 75.4% | viability, T/C [10] 70.6% | viability, T/C [11] 52.1% | viability, T/C [12] 32.7% | viability, T/C [13] 71.3% | viability, T/C [14] 72.9% | viability, T/C [15] 81.3% | viability, T/C [16] 62.9% | viability, T/C [17] 59.4% | viability, T/C [18] 23.9% | viability, T/C [19] 67% | viability, T/C [20] 55% | viability, T/C [21] 81.7% | viability, T/C [22] 43.3% | viability, T/C [23] 65.4% | viability, T/C [24] 26.9% | viability, T/C [25] 70.3% | viability, T/C [26] 63.5% | viability, T/C [27] 85.1% | viability, T/C [28] 39.9% | viability, T/C [29] 78.9% | viability, T/C [30] 42.3% | viability, T/C [31] 71.3% | viability, T/C [32] 62.6% | viability, T/C [33] 63.5% | viability, T/C [34] 56% | viability, T/C [35] 74.9% | viability, T/C [36] 36.4%
5.50: pIC50 (second compound 0.1 µM)

CCc1c2c(nc3ccc(O)cc13)-c1cc3c(c(=O)n1C2)COC(=O)[C@]3(O)CC + Cc1cnc(CNC(=O)c2c(=O)c3ccc(N4CCCN(C)CC4)nc3n3c2sc2ccccc23)cn1
8.12: pIC50 (second compound 1 µM)
8.09: pIC50 (second compound 0.0316 µM)
7.94: pIC50 (second compound 0.316 µM)
inactive: viability, T/C (second compound 0.0316 µM, first compound 0.000999 µM) 101% | viability, T/C (second compound 0.0316 µM, first compound 0.00316 µM) 70.3% | viability, T/C (second compound 0.0316 µM, first compound 0.00999 µM) 50.2% | viability, T/C [1] 17.3% | viability, T/C (second compound 0.1 µM, first compound 0.000999 µM) 95.2% | viability, T/C (second compound 0.1 µM, first compound 0.00316 µM) 85.8% | viability, T/C (second compound 0.1 µM, first compound 0.00999 µM) 57% | viability, T/C [7] 13.7% | viability, T/C (second compound 0.316 µM, first compound 0.000999 µM) 101% | viability, T/C (second compound 0.316 µM, first compound 0.00316 µM) 73.4% | viability, T/C (second compound 0.316 µM, first compound 0.00999 µM) 63.1% | viability, T/C [13] 15.6% | viability, T/C (second compound 1 µM, first compound 0.000999 µM) 109% | viability, T/C (second compound 1 µM, first compound 0.00316 µM) 69.2% | viability, T/C (second compound 1 µM, first compound 0.00999 µM) 42.1% | viability, T/C [19] 28.1% | viability, T/C (second compound 1 µM, first compound 0.0999 µM) 9.78% | viability, T/C (second compound 3.16 µM, first compound 0.000999 µM) 91.8% | viability, T/C (second compound 3.16 µM, first compound 0.00316 µM) 80.2% | viability, T/C (second compound 3.16 µM, first compound 0.00999 µM) 54.9% | viability, T/C [25] 32.5% | viability, T/C (second compound 3.16 µM, first compound 0.0999 µM) 8.3% | viability, T/C (second compound 10 µM, first compound 0.000999 µM) 81.3% | viability, T/C (second compound 10 µM, first compound 0.00316 µM) 71.1% | viability, T/C (second compound 10 µM, first compound 0.00999 µM) 59.7% | viability, T/C [31] 19.4%
7.88: pIC50 (second compound 3.16 µM)
7.90: pIC50 (second compound 10 µM)
active: viability, T/C (second compound 0.0316 µM, first compound 0.0999 µM) 6.2% | viability, T/C [3] 2.76% | viability, T/C (second compound 0.1 µM, first compound 0.0999 µM) 8.95% | viability, T/C [9] 3.1% | viability, T/C (second compound 0.316 µM, first compound 0.0999 µM) 10% | viability, T/C [15] 3.09% | viability, T/C [21] 2.05% | viability, T/C [27] 2.04% | viability, T/C (second compound 10 µM, first compound 0.0999 µM) 7.8% | viability, T/C [33] 1.03%
7.93: pIC50 (second compound 0.1 µM)
